Data on 1 compound can be found in publication PMC10131537, “Degradation of neurodegenerative disease-associated TDP-43 aggregates and oligomers via a proteolysis-targeting chimera” (Journal of Biomedical Science, 2023).

This experiment deals with T1, cereblon (CRBN) (Homo sapiens, UniProt Q96SW2).
T1 construct: GST-tagged human cereblon/DDB1, co-expressed by baculovirus; with DDB1
Description: competitive TR-FRET binding assay versus XL-665-labelled thalidomide. For orientation: TR-FRET usually uses a lanthanide donor and a delayed reading to cut background.

As usually defined, the EC50 is the concentration needed to bring the measured effect to its halfway point. Read a low EC50 as a more potent agent.

`CN(C)c1ccc(-c2nc3ccc(OCCOCCOCCNc4cccc5c4C(=O)N(C4CCC(=O)NC4=O)C5=O)cc3s2)cc1` (stereo not shown) [compound 2, 4-((2-(2-(2-((2-(4-(Dimethylamino)phenyl)benzo[d]thiazol-6-yl)oxy)ethoxy)ethoxy)ethyl)amino)-2-(2,6-dioxopiperidin-3-yl)isoindoline-1,3-dione] showed a concentration giving a half-maximal response (EC50) of 600 nM.
